Results: patent US20230015532A1, “PHARMACEUTICAL COMPOSITION, FOR PREVENTING OR TREATING FIBROSIS, COMPRISING PHEOPHORBIDE COMPOUND AS ACTIVE INGREDIENT” (PAEAN BIOTECHNOLOGY INC., priority 2019, published 2023)

Assays:
[1] = tested on: α-SMA, collagen 1A and fibronectin in CCD8-Lu cells; test: Comparison of anti-fibrotic activity by Western blotting (Experimental Example 4.2); type: cell-based, human; conditions: 2.5 μM and 5 μM, 6 hours after 5 ng/ml TGF-β, 18 hours
Description: A cell-based analysis experiment was performed to analyze the anti-fibrotic activity of pheophorbide a in comparison with nintedanib and pirfenidone, which were previously approved as a therapeutic agent for pulmonary fibrosis, using Western blotting assay.
CCD8-Lu cells, which are human lung-derived fibroblasts, were cultured in the DMEM medium containing 10% FBS. About 2×10^5 cells were then inoculated into a 6 well plate, cultured for 24 hours, and subjected to the deficient condition in the DMEM medium from which FBS was removed for about 24 hours.
24 hours later, following the treatment with TGF-β at a concentration of 5 ng/ml, fibrosis of cells was induced for 6 hours. Then, the cells were treated with pheophorbide a obtained in Preparation Example 2 or the therapeutic agent for pulmonary fibrosis and further cultured for 18 hours. Then, the negative control group was treated with nothing, the positive control group was treated with TGF-β alone at a concentration of 5 ng/ml, and the experimental groups were treated with TGF-β at a concentration of 5 ng/ml and 6 hours later, with pheophorbide a at a concentration of […] or 5 μM, nintedanib at a concentration of 1 μM, and pirfenidone at a concentration of 1 mM, respectively.
After 18 hours, the culture medium was removed and the cells were washed twice by adding a PBS buffer solution, and 100 μl of RIPA buffer solution (150 mM NaCl, 1% NP-40, 0.5% Deoxycholic acid, 0.1% SDS, 50 mM Tris pH 7.5) containing a protease inhibitor was added thereto directly. 10 minutes later, the cells were recovered using a scraper and transferred to a microtube and centrifuged at about 12,000×g for 10 minutes.
The separated supernatant was obtained and transferred to a new microtube and then the protein was quantified using a bicinchoninic acid assay (BCA assay) protein quantitative kit. Each sample with the same amount of protein was subjected to electrophoresis, and then Western blotting was performed. […]

[2] = tested on: CCD8-Lu cells and LL-29 cells; test: Cytotoxicity of pheophorbide a (WST-1 cell survival); type: cell-based, human; conditions: 72 hours, CCD8-Lu and LL-29
Description: In order to confirm the cytotoxicity of pheophorbide a obtained in Preparation Example 2, CCD8-Lu cells and LL-29 cells which are human lung-derived fibroblasts, were used. CCD8-Lu cells and LL-29 cells were inoculated into 96 well plates with […] cells/well and stabilized while culturing for 24 hours in a wet CO2 incubator at 37° C. The cultured cells were treated with different concentrations of pheophorbide a obtained in Preparation Example 2 and, 72 hours later, treated with the WST-1 reagent. After 1 hour, the survival rate of the cells was measured using a microplate reader (EZ Read 400, biochrom, UK) to determine the absorbance at 450 nm, and the toxicity was evaluated.
The cell survival rate as a result of the experiment is shown in FIG. 3 by expressing the percentage of the absorbance of the sample-treated group relative to the control group.

Substance: pheophorbide a
- expression of the α-SMA, collagen 1A, and fibronectin induced by TGF-β [1]: remarkably inhibited
- cytotoxicity ([2]; concentration of 5 μM): about 25%
- cytotoxicity ([2]; concentration of 10 μM): about 75%
- cytotoxicity ([2]; up to a concentration of 2.5 μM): little cytotoxicity
